Measurements: patent US9006459B2, “Fluorescent markers and use thereof for labeling specific protein targets” (University of Ottawa, priority 2010, dated 2015)

How the values were obtained:
[1] = Fluorescence enhancement (FE) ratio upon reaction with excess MPA; format: physicochemical; conditions: for FE (fluorescence enhancement ratio): HEPES (pH 7.4)/DMSO 5%, final divided by initial fluorescence intensity
Experimental: (§1) Spectroscopic characterization of fluorogen 5 included absorbance and fluorescence emission maxima as well as the fluorescence enhancement (FE) ratio. The spectroscopic characteristics were evaluated in two solvent systems (DMSO and HEPES (pH 7.4)/5% DMSO). The FE ratio determination was carried out by reacting 5 with excess mercaptopropionic acid (MPA) and then dividing the final fluorescence by the initial fluorescence intensity, at a specific fluorogen concentration.
Determination of Fluorescence Enhancement Ratios
(§2) Absorbance spectra were recorded at 25° C., with a Cary-100 spectrometer. Emission spectra and fluorescence intensity measurements were recorded at 25° C. with a Cary Eclipse fluorometer. Excitation and emission slits were fixed at 5 nm
3-Mercaptopropionic acid (50 eq) was added to a 1 to 4 mM DMSO solution of fluorogen. The resulting mixture was stirred at 25° C., in the dark for 18 hours after which fluorescence intensities of a dilution in HEPES buffer (pH 7.4) were recorded. Final fluorescence intensity was then divided by the initial florescence intensity at the same fluorogen concentration leading to the fluorescence enhancement ratio for the fluorogen.

[2] = Photophysical properties (absorbance/excitation and fluorescence emission maxima, fluorescence intensity); format: physicochemical; conditions: for initial fluorescence intensity: before reaction with MPA
Experimental: as §1, §2

Molecule | FE (fluorescence enhancement ratio) [1] | λem MPA adduct ([2]; di-MPA adduct in HEPES/DMSO 5%) [nm] | λex MPA adduct ([2]; di-MPA adduct in HEPES/DMSO 5%) [nm] | λem ([2]; fluorogen in HEPES/DMSO 5%) [nm] | λex ([2]; fluorogen in HEPES/DMSO 5%) [nm] | fluorescence intensity increase upon reaction with MPA ([1]; pure DMSO) | initial fluorescence intensity ([2]; aqueous media (HEPES/5% DMSO)) | λem MPA adduct ([2]; di-MPA adduct in DMSO) [nm] | λex MPA adduct ([2]; di-MPA adduct in DMSO) [nm] | λem ([2]; fluorogen in DMSO) [nm] | λex ([2]; fluorogen in DMSO) [nm] | initial fluorescence intensity ([2]; pure DMSO) | melting point [°C]
8-(2′,6′-di-((4″-(3-methylmaleimido)phenyl)ethynyl))-4,4-difluoro-4-bora-3a,4a-diaza-s-indacene [Fluorogen 17] | 6.4 | – | – | – | – | – | – | – | – | – | – | – | –
COc1ccc2cc(C(=O)NCc3cc(N4C(=O)C=C(C)C4=O)cc(N4C(=O)C=C(C)C4=O)c3)c(=O)oc2c1 [Fluorogen 11, 7-Methoxy-3-(3,5-di-(3-methylmaleimido)benzyl)aminocarbonyl coumarin] | 6.4 | 404 | 347 | 404 | 347 | – | – | – | – | – | – | – | –
CC1=CC(=O)N(c2cc(NS(=O)(=O)c3cccc4c(N(C)C)cccc34)cc(N3C(=O)C=C(C)C3=O)c2)C1=O [Fluorogen 5, N-Dansyl-3,5-di-(3-methylmaleimido)aniline] | – | 520 | 325 | 520 | 325 | over 300 fold | at the level of the background noise | 540 | 350 | 540 | 345 | approximately 2 | 230
8-(3′,5′-di-(3-methylmaleimido)-phenyl-4,4-difluoro-4-bora-3a,4a-diaza-s-indacene [Fluorogen 13] | 3.5 | 514 | 510 | 514 | 510 | – | – | – | – | – | – | – | –
